Source: patent publication US8008488B2 (Abbott GmbH & Co. KG, priority 2003, dated 2011)
pKi: −log10 of the molar value. Counter-ions that a name gives are not always drawn.

Key:
[1] = molecular target: T1, human dopamine D2L receptors (long isoform) (Homo sapiens, UniProt P14416); test: Dopamine D2L receptor binding, displacement of [125I]-iodospiperone; conditions: *Ki(D2L)/Ki(D3), HEK-293 membranes, 0.01 nM [125I]-iodospiperone
T1 construct: expressed in transfected cells
Protocol: (§1) The substance to be tested was dissolved either in methanol/Chremophor® (BASF-AG) or in dimethyl sulfoxide and then diluted with water to the desired concentration.
(§2) Triplicate mixtures were carried out.
The incubation buffer contained 50 mM Tris, 120 mM NaCl, 5 mM KCl, 2 mM CaCl2, 2 mM MgCl2 and 0.1% bovine serum albumin. The buffer was adjusted to pH 7.4 with HCl.
(§3) Measurement and Evaluation:
(§4) After incubation at 25° C. for 60 minutes, the mixtures were filtered under vacuum through Whatman GF/B glass fiber filters using a cell harvester. The filters were transferred by a filter transfer system into scintillation vials. After addition of 4 ml of Ultima Gold® (Packard), the samples were shaken for one hour and then the radioactivity was calculated in a beta counter (Packard, Tricarb 2000 or 2200CA). The cp values were converted into dpm by means of a standard quench series with the aid of the instrument's own program.
(§5) Evaluation of the inhibition plots took place by iterative nonlinear regression analysis using the Statistical Analysis System (SAS) similar to the “LIGAND” program described by Munson and Rodbard.

[2] = molecular target: T2, human dopamine D3 receptors (Homo sapiens, UniProt P35462); test: Dopamine D3 receptor binding, displacement of [125I]-iodosulpride; conditions: membranes from HEK-293 cells with stably expressed human D3 receptors, 0.1 nM [125I]-iodosulpride
T2 construct: expressed in transfected cells
Protocol: as §1, §2
The incubation buffer contained 50 mM Tris, 120 mM NaCl, 5 mM KCl, 2 mM CaCl2, 2 mM MgCl2 and 0.1% bovine serum albumin, 10 μM quinolone, 0.1% ascorbic acid (prepared fresh each day). The buffer was adjusted to pH 7.4 with HCl.
as §3, §4, §5

T2 sequence (P35462 whole entry): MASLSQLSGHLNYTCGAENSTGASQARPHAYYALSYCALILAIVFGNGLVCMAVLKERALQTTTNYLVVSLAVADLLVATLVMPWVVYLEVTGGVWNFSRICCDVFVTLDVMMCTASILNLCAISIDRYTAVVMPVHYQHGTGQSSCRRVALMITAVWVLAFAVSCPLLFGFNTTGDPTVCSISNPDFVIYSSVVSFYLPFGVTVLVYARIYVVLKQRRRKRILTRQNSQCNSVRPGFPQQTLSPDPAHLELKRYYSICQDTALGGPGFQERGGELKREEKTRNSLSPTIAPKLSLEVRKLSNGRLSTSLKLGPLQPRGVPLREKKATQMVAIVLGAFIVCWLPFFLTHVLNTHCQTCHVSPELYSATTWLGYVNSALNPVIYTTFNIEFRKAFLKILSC
T1 sequence (P14416 whole entry, canonical isoform): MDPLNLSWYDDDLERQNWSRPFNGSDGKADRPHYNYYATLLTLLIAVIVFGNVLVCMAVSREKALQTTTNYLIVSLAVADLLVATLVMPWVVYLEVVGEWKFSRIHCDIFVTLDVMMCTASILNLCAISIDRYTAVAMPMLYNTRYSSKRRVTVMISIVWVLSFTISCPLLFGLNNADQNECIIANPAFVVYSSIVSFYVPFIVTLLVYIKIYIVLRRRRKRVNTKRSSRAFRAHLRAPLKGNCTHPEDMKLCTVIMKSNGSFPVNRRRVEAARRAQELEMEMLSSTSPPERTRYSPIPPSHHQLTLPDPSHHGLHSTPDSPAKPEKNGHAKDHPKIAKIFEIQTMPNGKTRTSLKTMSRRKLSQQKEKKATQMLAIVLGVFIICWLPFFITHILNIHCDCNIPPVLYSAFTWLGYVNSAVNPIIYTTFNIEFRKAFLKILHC

| Compound | Selectivity D3 vs. D2L* [1] | pKi [2] |
| --- | --- | --- |
| CCCc1cc(N2CCN(CCCCn3ccc(C4CCCCC4)nc3=O)CC2)nc(C(C)(C)C)n1 [Example 100, 4-(2-tert-Butyl-6-propylpyrimidin-4-yl)-1-[4-(4-cyclohexyl-2-oxo-2H-pyrimidin-1-yl)butyl]piperazin-1-ium fumarate] | 51 | 8.86 |
| CCCc1cc(N2CCN(CCCCn3ccc(-c4cccc(F)c4)nc3=O)CC2)nc(C(C)(C)C)n1 [Example 72, 4-(2-tert-Butyl-6-propylpyrimidin-4-yl)-1-{4-[4-(3-fluorophenyl)-2-oxo-2H-pyrimidin-1-yl]butyl}piperazin-1-ium fumarate] | 54 | 8.83 |
| O=c1[nH]c(=O)n(CCCCN2CCN(c3cccc(Cl)c3Cl)CC2)cc1F [Example 79, 1-{4-[4-(2,3-Dichlorophenyl)piperazin-1-yl]butyl}-5-fluoro-1H-pyrimidine-2,4-dione] | 30 | 9.07 |
| Cc1ccccc1N1CCN(CCCCn2cc(C)c(=O)[nH]c2=O)CC1 [Example 111, 5-Methyl-1-[4-(4-(o-tolyl)piperazin-1-yl)butyl]-1H-pyrimidine-2,4-dione] | 30 | 8.17 |
| CCCc1cc(N2CCN(CCC(C)Cn3cc(C)c(=O)[nH]c3=O)CC2)nc(C(C)(C)C)n1 (stereo not shown) [Example 70, 1-{4-[4-(2-tert-Butyl-6-propylpyrimidin-4-yl)piperazin-1-yl]-2-methylbutyl}-5-methyl-1H-pyrimidine-2,4-dione] | 30 | 8.00 |
| Cc1cn(CCCC(C)N2CCN(c3cc(C(F)(F)F)nc(C(C)(C)C)n3)CC2)c(=O)[nH]c1=O (stereo not shown) [Example 54, 1-{4-[4-(2-tert-Butyl-6-trifluoromethylpyrimidin-4-yl)piperazin-1-yl]pentyl}-5-methyl-1H-pyrimidine-2,4-dione] | 52 | 8.03 |
| Cc1cn(CCCCN2CCN(c3cc(C(F)(F)F)nc(C(C)(C)C)n3)CC2)c(=O)nc1S [Example 2, 1-(4-{4-[2-tert-Butyl-6-(trifluoromethyl)pyrimidin-4-yl]piperazin-1-yl}butyl)-4-mercapto-5-methylpyrimidin-2(1H)-one] | 88 | 8.49 |
| Cc1ccc(-c2ccn(CCCCN3CCN(c4cc(C(F)(F)F)nc(C(C)(C)C)n4)CC3)c(=O)n2)cc1 [Example 66, 4-(2-tert-Butyl-6-trifluoromethylpyrimidin-4-yl)-1-[4-(2-oxo-4-(p-tolyl)-2H-pyrimidin-1-yl)butyl]piperazin-1-ium fumarate] | 37 | 7.87 |
| CC(C)(C)c1nc(N2CCN(CCCCn3ccc(-c4cccc(F)c4)nc3=O)CC2)cc(C(F)(F)F)n1 [Example 73, 4-(2-tert-Butyl-6-trifluoromethylpyrimidin-4-yl)-1-{4-[4-(3-fluorophenyl)-2-oxo-2H-pyrimidin-1-yl]butyl}piperazin-1-ium fumarate] | 31 | 8.03 |
| Cc1cn(CCCCN2CCN(c3cc(Cl)cc(Cl)c3)CC2)c(=O)[nH]c1=O [Example 119, 1-{4-[4-(3,5-Dichlorophenyl)piperazin-1-yl]butyl}-5-methyl-1H-pyrimidine-2,4-dione] | 65 | 9.34 |
| CCCc1cc(N2CCN(C(C)CCCn3cc(C)c(=O)[nH]c3=O)CC2)nc(C(C)(C)C)n1 (single isomer, unassigned; (-)) [Example 76, (−)-1-{4-[4-(2-tert-Butyl-6-propylpyrimidin-4-yl)piperazin-1-yl]pentyl}-5-methyl-1H-pyrimidine-2,4-dione] | 103 | 8.52 |
| Cc1cn(CCCCN2CCN(c3cc(C(F)(F)F)nc(C(C)(C)C)n3)CC2)c(=O)nc1-c1ccccc1 [Example 26, 1-(4-{4-[2-tert-Butyl-6-(trifluoromethyl)pyrimidin-4-yl]piperazin-1-yl}butyl)-5-methyl-4-phenylpyrimidin-2(1H)-one] | 55 | 8.09 |
| CCCc1cc(N2CCN(CCCCn3ccc(-c4cccc(C)c4)nc3=O)CC2)nc(C(C)(C)C)n1 [Example 59, 1-{4-[4-(2-tert-Butyl-6-propylpyrimidin-4-yl)piperazin-1-yl]butyl}-4-(m-tolyl)-1H-pyrimidin-2-one] | 44 | 8.74 |
| CC(C)(C)c1nc(N2CCN(CCCCn3ccc(-c4ccccc4F)nc3=O)CC2)cc(C(F)(F)F)n1 [Example 67, 4-(2-tert-Butyl-6-trifluoromethylpyrimidin-4-yl)-1-{4-[4-(2-fluorophenyl)-2-oxo-2H-pyrimidin-1-yl]butyl}piperazin-1-ium fumarate] | 39 | 8.00 |
| CCCc1cc(N2CCN(C(C)CCCn3ccc(=O)[nH]c3=O)CC2)nc(C(C)(C)C)n1 (stereo not shown) [Example 61, 4-(2-tert-Butyl-6-propylpyrimidin-4-yl)-1-[4-(2,4-dioxo-3,4-dihydro-2H-pyrimidin-1-yl)-1-methylbutyl]piperazin-1-ium fumarate] | 28 | 8.23 |
| Cc1ccccc1-c1ccn(CCCCN2CCN(c3cc(C(F)(F)F)nc(C(C)(C)C)n3)CC2)c(=O)n1 [Example 60, 4-(2-tert-Butyl-6-trifluoromethylpyrimidin-4-yl)-1-[4-(2-oxo-4-(o-tolyl)-2H-pyrimidin-1-yl)butyl]piperazin-1-ium fumarate] | 91 | 8.36 |

Second part, the molecule after the results:

| Selectivity D3 vs. D2L* [1] | pKi [2] | Compound |
| --- | --- | --- |
| 150 | 9.13 | CC(=O)O.CCCc1cc(N2CCN(CCCCn3cc(Cl)c(=O)[nH]c3=O)CC2)nc(C(C)(C)C)n1 [Example 77, 4-(2-tert-Butyl-6-propylpyrimidin-4-yl)-1-[4-(5-chloro-2,4-dioxo-3,4-dihydro-2H-pyrimidin-1-yl)butyl]piperazin-1-ium acetate] |
| 52 |  | Cn1c(=O)ccn(CCCCN2CCN(c3cc(C(F)(F)F)nc(C(C)(C)C)n3)CC2)c1=O [Example 27, 1-(4-{4-[2-tert-Butyl-6-(trifluoromethyl)pyrimidin-4-yl]piperazin-1-yl}butyl)-3-methylpyrimidine-2,4(1H,3H)-dione] |
| 96 | 8.84 | CC(C)(C)c1ccn(CCCCN2CCN(c3cc(C4CC4)nc(C(C)(C)C)n3)CC2)c(=O)n1 [Example 19, 4-tert-Butyl-1-{4-[4-(2-tert-butyl-6-cyclopropylpyrimidin-4-yl)piperazin-1-yl]butyl}pyrimidin-2(1H)-one] |
| 34 |  | Cc1cn(CCCCN2CCN(c3cc(C(F)(F)F)nc(C(C)(C)C)n3)CC2)c(=O)n(C)c1=O [Example 25, 1-(4-{4-[2-tert-Butyl-6-(trifluoromethyl)pyrimidin-4-yl]piperazin-1-yl}butyl)-3,5-dimethylpyrimidine-2,4(1H,3H)-dione] |
| 63 | 8.82 | CC(C)(C)c1nc(C2CCC2)cc(N2CCN(CCCCn3ccc(=O)[nH]c3=O)CC2)n1 [Example 23, 1-{4-[4-(2-tert-Butyl-6-cyclobutylpyrimidin-4-yl)piperazin-1-yl]butyl}pyrimidine-2,4(1H,3H)-dione] |
| 49 | 7.96 | CC(CCCn1ccc(=O)[nH]c1=O)N1CCN(c2cc(C(F)(F)F)nc(C(C)(C)C)n2)CC1 (stereo not shown) [Example 62, 1-{4-[4-(2-tert-Butyl-6-trifluoromethylpyrimidin-4-yl)piperazin-1-yl]pentyl}-1H-pyrimidine-2,4-dione] |
| 116 | 8.30 | CCCc1cc(N2CCN(CCCCn3ccc(C)nc3=O)CC2)nc(C(C)(C)C)n1.Cl [Example 35, 4-(2-tert-Butyl-6-propylpyrimidin-4-yl)-1-[4-(4-methyl-2-oxopyrimidin-1 (2H)-yl)butyl]piperazin-1-ium chloride] |
| 99 | 8.32 | CC(C)(C)c1nc(N2CCN(CCCCn3cc(C#N)c(=O)[nH]c3=O)CC2)cc(C(F)(F)F)n1 [Example 18, 1-(4-{4-[2-tert-Butyl-6-(trifluoromethyl)pyrimidin-4-yl]piperazin-1-yl}butyl)-2,4-dioxo-1,2,3,4-tetrahydropyrimidine-5-carbonitrile] |
| 37 | 8.30 | CC(C)(C)c1nc(N2CCN(CCCCn3ccc(-c4ccc(F)cc4)nc3=O)CC2)cc(C(F)(F)F)n1.Cl [Example 45, 4-(2-tert-Butyl-6-trifluoromethylpyrimidin-4-yl)-1-{4-[4-(4-fluorophenyl)-2-oxo-2H-pyrimidin-1-yl]butyl}piperazin-1-ium chloride] |
| 48 | 9.49 | O=c1ccn(CCCCN2CCN(c3cccc(Cl)c3Cl)CC2)c(=O)[nH]1 [Example 78, 1-{4-[4-(2,3-Dichlorophenyl)piperazin-1-yl]butyl}-1H-pyrimidine-2,4-dione] |
| 35 | 7.51 | Cc1cnc(=O)n(CCCCN2CCN(c3cc(C(F)(F)F)nc(C(C)(C)C)n3)CC2)c1 [Example 6, 1-(4-{4-[2-tert-Butyl-6-(trifluoromethyl)pyrimidin-4-yl]piperazin-1-yl}butyl)-5-methylpyrimidin-2(1H)-one] |
